Patent US9884863B2, “STAT3 inhibitor” (Board of Regents, The University of Texas System, priority 2013, dated 2018)
pIC50: −log10 of the molar value. Like-named read-outs stand apart in the source and are kept apart here.

Tests used:
MDA-MB-231 = test: MTS cell proliferation assay, MDA-MB-231; assay type: cell-based, human; settings: Homo sapiens
Procedure, shortened: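 Cells are exposed to DMSO or STAT3 inhibitors at 0.01-100 μM for 72 h, or at 1, 5 and 10 μM. Proliferation is read by MTS absorbance at 550 or 560 nm after 1 h at 37 °C. Each concentration is run in quadruplicate wells.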

Panc-1 = test: MTS cell proliferation assay, Panc-1; assay type: cell-based, human; settings: Homo sapiens
Procedure, shortened: (§1)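 Cells seeded at 2×10^3 cells/well and exposed 72 h to DMSO or 0.01–100 μM STAT3 inhibitor, quadruplicate wells per concentration. Proliferation read by MTS reduction, OD 550 nm after 1 h at 37 °C.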

AsPC1 = test: MTS cell proliferation assay, AsPC1; assay type: cell-based, human; settings: Homo sapiens
Procedure, shortened: as §1

MCF-7 = test: MTS cell proliferation assay, MCF-7; assay type: cell-based, human; settings: Homo sapiens
Procedure, shortened: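 MCF-7 human breast cancer cells were exposed to test compounds at a range of concentrations, then proliferation was measured with the MTS reagent from Promega's CellTiter 96 AQueous Non-Radioactive Cell Proliferation Assay kit. After 1 hr at 37° C., OD at 550 nm was read on a 96-well iMark Microplate Absorbance Reader, with quadruplicate wells per concentration.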

[1] = system: MCF-7, MDA-MB-231, AsPC1 and Panc-1; test: MTS proliferation assays, breast and pancreatic cancer cell line panel; assay type: cell-based, human; settings: Example 4 numbering
Procedure: In Vitro Determination of Effects of Synthesized Compounds on Cancer Cell Proliferation. Cancer cells (breast cancer cell lines MCF-7 and MDA-MB-231, pancreatic cancer cell lines AsPC-1 and Panc-1) were seeded in 96-well plates at a density of 2×10^3 cells/well and treated with DMSO, 0.01, 0.1, 1, 5, 10, and 100 μM of individual STAT3 inhibitors for 72 h. Proliferation was measured by treating cells with the 3-(4,5-dimethylthiazol-2-yl)-5-(3-carboxymethoxyphenyl)-2-(4-sulfophenyl)-2H-tetrazolium) (MTS) in a CellTiter 96t Aqueous Non-Radioactive Cell Proliferation Assay kit (Promega, Madison, Wis., USA). Absorbance of all wells was determined by measuring OD at 550 nm after 1 h incubation at 37° C. on a 96-well iMark™ Microplate Absorbance Reader (BioRad, Hercules, Calif.). Each individual compound was tested in quadruplicate wells for each concentration.

[2] = assay type: in vivo; settings: mouse, in vivo, 150 mg/kg
Procedure: Female nude mice at 4 to 6 wk of age were obtained from MDACC ERO facility. The mice were maintained in a barrier unit with 12 hours light-dark switch room and all materials were autoclaved. Freshly harvested MDA-MB-231 cells (2.5×10^6 cells per mouse, resuspended in 100 μl PBS) were injected into the 3rd mammary fat pad of the mice, and then mice were randomly assigned into control and treatment groups (≧6 mice per group). Treatment started when the xenograft mammary tumors reaches a volume of 200 mm^3. […] Mice were monitored daily for general health conditions (body weight, fur coat condition and posture) and toxicity (hair loss, skin rash, abdominal distension). […] Tumor volume was calculated as V=W^2×L/2, where L=longer diameter (mm) and W=width of short diameter (mm). […]
Female nude mice were obtained from MDACC and were used for orthotopic tumor studies at 4 to 6 weeks of age. […] Body weights and tumors volume were measured daily and tumor volume was calculated according to the formula V=0.5×L×W^2, where L=length (mm) and W=width (mm).
Twenty-two female nude mice (8 wks of age) were obtained from MDACC ERC Center. […] Body weights and tumors volume were measured daily and tumor volume calculated using the formula V=0.5×L×W^2, where L=length (mm) and W=width (mm) of xenograft tumors. Signs of toxicity were recorded individually. […]

[3] = system: STAT3 promoter activity in MDA-MB-231 cells; test: Transient transfection and dual luciferase reporter assay (pSTAT3-Luc); assay type: cell-based, human; settings: Homo sapiens, MDA-MB-231, read-out: inhibition of STAT3 promoter activity at 5 μM; 24 h, compared with control; Example 4 numbering
Procedure: MDA-MB-231 cells were pre-treated with niclosamide or 11 at different concentrations for 24 h. The STAT3 promoter activity in MDA-MB-231 cells was determined after transient transfecting with pSTAT3-Luc vector.
Transient Transfection and Dual Luciferase Reporter Assays. MBA-MB-231 cells were seeded in 24-well plate at a density of 5×10^4 cells/well in RPMI-1640 medium containing 10% FBS and 1% penicillin-streptomycin. Transient transfections were performed 4 h after plating, using the method described previously (Rees, D. C. et al., 2004; Shen, Q. et al., 2008). Total amount of DNA for transfections was 0.5 μg/well, including pSTAT3-Luc (95%, obtained from Panomics, Cat# LR0077) and internal control vector renilla (5%, from Promega, Madison, Wis., USA). 5 h after transfection, the cells were treated with compound […] for 24 h, then reporter activity was evaluated using dual luciferase reporter assay kit (Promega, Madison, Wis., USA) on an Omega™ Microplate Luminometer (BMG LABTECH Inc., NC, USA). Relative luciferase units were the ratio of the absolute activity of firefly luciferase to that of renilla luciferase. Experiments were conducted with triplicates and results are representatives of at least 3 independent experiments.

pIC50 (MDA-MB-231; MDA-MB-231, Example 4 numbering, 72 h, >10 = no effect, read-out: IC50 MDA-MB-231 (Table 5)) | pIC50 (Panc-1; PANC-1, Example 4 numbering, 72 h, >10 = no effect, read-out: IC50 Panc-1 (Table 5)) | pIC50 (AsPC1; ASPC1, Example 4 numbering, 72 h, >10 = no effect, read-out: IC50 AsPC1 (Table 5)) | pIC50 (MCF-7; MCF7, Example 4 numbering, 72 h, >10 = no effect, read-out: IC50 MCF-7 (Table 5)) | melting point [°C] | Compound | antiproliferative activity in words (Example 4) [1] | pIC50 (MDA-MB-231; MDA-MB-231, 72 h, read-out: IC50 MDA-MB-231 (Table 4)) | pIC50 (MDA-MB-231; MDA-MB-231, 72 h, read-out: IC50 MDA-MB-231 (Table 5)) | pIC50 (Panc-1; PANC-1, 72 h, read-out: IC50 Panc-1 (Table 4)) | pIC50 (Panc-1; PANC-1, 72 h, read-out: IC50 Panc-1 (Table 5)) | pIC50 (AsPC1; ASPC1, 72 h, read-out: IC50 AsPC1 (Table 4)) | pIC50 (AsPC1; ASPC1, 72 h, read-out: IC50 AsPC1 (Table 5)) | pIC50 (MCF-7; MCF7, 72 h, read-out: IC50 MCF-7 (Table 4)) | pIC50 (MCF-7; MCF7, 72 h, read-out: IC50 MCF-7 (Table 5)) | signs of toxicity at 150 mg/kg [2] | inhibition at 5 µM [3] [%]
5.73 | 5.47 | 5.89 | 5.42 | 285 to 286 | O=C(Nc1ccc2c(c1)S(=O)(=O)C=C2)c1ccnc(-c2ccccc2)c1 [Compound 22, N-(1,1-Dioxo-1H-1λ^6-benzo[b]thiophen-6-yl)-2-phenyl-isonicotinamide] | low micromolar IC50 values | – | – | – | – | – | – | – | – | – | –
– | – | – | – | – | O=C(Nc1ccc2c(c1)S(=O)(=O)C=C2)c1cc(-c2ccccc2)nc2ccccc12 [Compound 5] | – | 6.54 | 6.54 | 6.59 | 6.59 | 5.90 | 5.90 | 7.00 | 7.00 | did not show significant signs of toxicity | ~65
